Results reported in patent US7432365B1, “DNA molecules encoding beta clamp proteins of gram positive bacteria” (priority 1998, dated 2008).

T1: Peak4 (Pol III-L) (Staphylococcus aureus, UniProt P0C1P9)
T1 construct: peak 4 (last peak off Mono Q); endogenous in cells; host or cells: S. aureus strain 4220 lysate, MonoQ peak 4 (partially pure)
T1 sequence (P0C1P9 1-1435): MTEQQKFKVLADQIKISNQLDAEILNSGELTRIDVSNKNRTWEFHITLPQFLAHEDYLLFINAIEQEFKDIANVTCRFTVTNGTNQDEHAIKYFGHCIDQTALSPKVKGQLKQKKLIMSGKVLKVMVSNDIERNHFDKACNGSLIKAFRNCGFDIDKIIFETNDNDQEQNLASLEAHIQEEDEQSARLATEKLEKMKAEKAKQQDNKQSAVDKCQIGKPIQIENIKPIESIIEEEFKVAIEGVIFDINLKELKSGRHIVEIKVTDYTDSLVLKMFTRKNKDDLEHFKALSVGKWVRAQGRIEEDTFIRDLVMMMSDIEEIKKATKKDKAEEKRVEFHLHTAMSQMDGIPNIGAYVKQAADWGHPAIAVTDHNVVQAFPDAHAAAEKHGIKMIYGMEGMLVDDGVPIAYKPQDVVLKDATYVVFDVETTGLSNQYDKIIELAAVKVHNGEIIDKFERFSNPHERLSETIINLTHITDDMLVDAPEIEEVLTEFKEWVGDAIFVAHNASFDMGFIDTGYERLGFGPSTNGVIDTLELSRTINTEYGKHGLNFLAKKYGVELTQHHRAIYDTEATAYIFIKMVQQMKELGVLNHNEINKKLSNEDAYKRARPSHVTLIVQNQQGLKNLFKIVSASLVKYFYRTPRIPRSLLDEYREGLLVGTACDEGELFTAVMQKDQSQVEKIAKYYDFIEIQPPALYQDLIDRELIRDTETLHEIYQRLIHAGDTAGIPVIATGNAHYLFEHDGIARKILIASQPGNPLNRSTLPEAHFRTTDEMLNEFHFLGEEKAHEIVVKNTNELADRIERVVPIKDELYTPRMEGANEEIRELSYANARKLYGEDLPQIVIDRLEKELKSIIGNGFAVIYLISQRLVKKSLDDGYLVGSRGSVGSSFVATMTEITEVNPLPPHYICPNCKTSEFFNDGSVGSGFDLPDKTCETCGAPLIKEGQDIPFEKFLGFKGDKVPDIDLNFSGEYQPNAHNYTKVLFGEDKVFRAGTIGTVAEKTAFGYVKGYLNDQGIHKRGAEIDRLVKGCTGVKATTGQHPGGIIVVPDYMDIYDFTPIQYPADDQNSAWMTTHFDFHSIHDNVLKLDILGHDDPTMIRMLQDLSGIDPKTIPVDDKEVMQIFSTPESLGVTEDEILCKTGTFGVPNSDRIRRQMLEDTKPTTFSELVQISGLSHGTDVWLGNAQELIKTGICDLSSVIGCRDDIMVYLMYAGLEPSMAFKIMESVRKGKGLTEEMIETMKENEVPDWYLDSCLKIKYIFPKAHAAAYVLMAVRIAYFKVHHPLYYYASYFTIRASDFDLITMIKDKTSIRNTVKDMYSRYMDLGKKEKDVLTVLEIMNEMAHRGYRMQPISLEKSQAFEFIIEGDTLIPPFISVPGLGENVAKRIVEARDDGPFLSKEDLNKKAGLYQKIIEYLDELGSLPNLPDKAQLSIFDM

T2: Streptococcus pyogenes δ′ subunit (holB gene product) (Streptococcus pyogenes)
T2 construct: also called delta prime; 6′
T2 chain: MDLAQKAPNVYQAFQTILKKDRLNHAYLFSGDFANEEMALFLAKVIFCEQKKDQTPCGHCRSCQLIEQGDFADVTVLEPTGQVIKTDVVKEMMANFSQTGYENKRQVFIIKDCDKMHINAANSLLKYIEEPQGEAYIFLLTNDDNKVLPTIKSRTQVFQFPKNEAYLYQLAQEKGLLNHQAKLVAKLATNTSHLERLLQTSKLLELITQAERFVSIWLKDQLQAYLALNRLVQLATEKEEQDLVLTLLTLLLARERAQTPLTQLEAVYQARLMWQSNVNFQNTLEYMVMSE

B1: Streptococcus pyogenes δ subunit (holA gene product) (other)
chain: MIAIEKIEKLSKENLGLITLVTGDDIGQYSQLKSRLMEQIAFDKDDLAYSYFDMSEAAYQDAEMDLVSLPFFAEQKVVIFDHLLDITTNKKSFLKEKDLKAFEAYLENPLETTRLIIFAPGKLDSKRRLVKLLKRDALVLEANPLKEAELRTYFQKYSHQLGLGFESGAFDQLLLKSNDDFSQIMKNMAFLKAYKKTGNISLTDIEQAIPKSLQDNIFDLTRLVLGGKIDAARDLIHDLRLSGEDDIKLIAIMLGQFRLFLQLTILARDVKNEQQLVISLSDILGRRVNPYQVKYALKDSRTLSLAFLTGAVKTLIETDYQIKTGLYEKSYLVDIALLKIMTHSQK
notes: also called delta; putative δ

How the values were obtained:
Peak1 (new polymerase) = assay: DNA polymerase assay in presence or absence of pCMB, NEM, 0.15 M KCl; format: biochemical, Staphylococcus aureus; conditions: S. aureus Peak1
Protocol: (§1) These assays were used in the purification of DNA polymerases from S. aureus cell extracts. Assays contained 2.5 μg activated calf thymus DNA in a final volume of 25 μl replication buffer. An aliquot of the fraction to be assayed was added to the assay mixture on ice followed by incubation at 37° C. for 5 min.
(§2) Next, it was determined which of these peaks of DNA polymerase activity correspond to DNA polymerases 1, I, and III, and which peak is the unidentified DNA polymerase. In the Gram positive bacterium B. subtilis, Pol III is inhibited by pCMB, NEM, and 0.15 M NaCl, Pol II is inhibited by KCl, but not NEM or 0.15 M KCL, and Pol I is not inhibited by any of these treatments (Gass et al., “Further Genetic and Enzymological Characterization of the Three Bacillus subtilis Deoxyribonucleic Acid Polymerases,” J. Biol. Chem., 248:7688-7700 (1973), which is hereby incorporated by reference). […] Peak 3 clearly corresponded to Pol I, because it was not inhibited by NEM, pCMB, or 0.15 M NaCl. Peak 2 correspond to Pol II, because it was not inhibited by NEM, but was inhibited by pCMB and 0.15 M NaCl. Peaks 1 and 4 both had characteristics that mimic Pol III; however, peak 4 elutes on MonoQ at a similar position as Pol III-L expressed in E. coli (see FIG. 2B).

Peak3 (Pol I) = assay: as above; format: biochemical, Staphylococcus aureus; conditions: S. aureus Peak3
Protocol: as §1, §2

Peak2 (Pol II) = assay: as above; format: biochemical, Staphylococcus aureus; conditions: S. aureus Peak2
Protocol: (§3) These assays were used in the purification of DNA polymerases from S. aureus cell extracts. Assays contained 2.5 μg activated calf thymus DNA in a final volume of 25 μl replication buffer. An aliquot of the fraction to be assayed was added to the assay mixture on ice followed by incubation at 37° C. for 5 min. DNA synthesis was quantitated using DE81 paper as described in Rowen et al., “Primase, the DnaG Protein of Escherichia coli. An Enzyme Which Starts DNA Chains,” J. Biol. Chem., 253:758-764 (1979), which is hereby incorporated by reference.
(§4) Next, it was determined which of these peaks of DNA polymerase activity correspond to DNA polymerases 1, I, and III, and which peak is the unidentified DNA polymerase. In the Gram positive bacterium B. subtilis, Pol III is inhibited by pCMB, NEM, and 0.15 M NaCl, Pol II is inhibited by KCl, but not NEM or 0.15 M KCL, and Pol I is not inhibited by any of these treatments (Gass et al., “Further Genetic and Enzymological Characterization of the Three Bacillus subtilis Deoxyribonucleic Acid Polymerases,” J. Biol. Chem., 248:7688-7700 (1973), which is hereby incorporated by reference).

Peak4 (Pol III-L) = target: T1, Peak4 (Pol III-L); assay: as above; format: biochemical; conditions: S. aureus Peak4
Protocol: as §3, §4

Pol I = Pol I (Bacillus subtilis, UniProt O34996); conditions: cited from earlier work
Pol II = conditions: cited from earlier work
Pol III-L = Pol III-L (Bacillus subtilis, UniProt P13267); conditions: Pol III / Pol III-L; cited from earlier work
[1] = target: Staphylococcus aureus beta subunit (dnaN gene product) (Staphylococcus aureus) (UniProt P0A022); assay: cell-based or functional assay
[2] = target: T2, Streptococcus pyogenes δ′ subunit (holB …); assay: gel filtration on Superose 6 of an α-large, τ, δ, δ′ mixture, SDS-PAGE of fractions
[3] = target: B1; assay: gel filtration on Superose 6 in buffer A with 100 mM NaCl, SDS-PAGE of fractions
[4] = target: T2, Streptococcus pyogenes δ′ subunit (holB …); assay: as above

Pol III-L, sequence (P13267 whole entry): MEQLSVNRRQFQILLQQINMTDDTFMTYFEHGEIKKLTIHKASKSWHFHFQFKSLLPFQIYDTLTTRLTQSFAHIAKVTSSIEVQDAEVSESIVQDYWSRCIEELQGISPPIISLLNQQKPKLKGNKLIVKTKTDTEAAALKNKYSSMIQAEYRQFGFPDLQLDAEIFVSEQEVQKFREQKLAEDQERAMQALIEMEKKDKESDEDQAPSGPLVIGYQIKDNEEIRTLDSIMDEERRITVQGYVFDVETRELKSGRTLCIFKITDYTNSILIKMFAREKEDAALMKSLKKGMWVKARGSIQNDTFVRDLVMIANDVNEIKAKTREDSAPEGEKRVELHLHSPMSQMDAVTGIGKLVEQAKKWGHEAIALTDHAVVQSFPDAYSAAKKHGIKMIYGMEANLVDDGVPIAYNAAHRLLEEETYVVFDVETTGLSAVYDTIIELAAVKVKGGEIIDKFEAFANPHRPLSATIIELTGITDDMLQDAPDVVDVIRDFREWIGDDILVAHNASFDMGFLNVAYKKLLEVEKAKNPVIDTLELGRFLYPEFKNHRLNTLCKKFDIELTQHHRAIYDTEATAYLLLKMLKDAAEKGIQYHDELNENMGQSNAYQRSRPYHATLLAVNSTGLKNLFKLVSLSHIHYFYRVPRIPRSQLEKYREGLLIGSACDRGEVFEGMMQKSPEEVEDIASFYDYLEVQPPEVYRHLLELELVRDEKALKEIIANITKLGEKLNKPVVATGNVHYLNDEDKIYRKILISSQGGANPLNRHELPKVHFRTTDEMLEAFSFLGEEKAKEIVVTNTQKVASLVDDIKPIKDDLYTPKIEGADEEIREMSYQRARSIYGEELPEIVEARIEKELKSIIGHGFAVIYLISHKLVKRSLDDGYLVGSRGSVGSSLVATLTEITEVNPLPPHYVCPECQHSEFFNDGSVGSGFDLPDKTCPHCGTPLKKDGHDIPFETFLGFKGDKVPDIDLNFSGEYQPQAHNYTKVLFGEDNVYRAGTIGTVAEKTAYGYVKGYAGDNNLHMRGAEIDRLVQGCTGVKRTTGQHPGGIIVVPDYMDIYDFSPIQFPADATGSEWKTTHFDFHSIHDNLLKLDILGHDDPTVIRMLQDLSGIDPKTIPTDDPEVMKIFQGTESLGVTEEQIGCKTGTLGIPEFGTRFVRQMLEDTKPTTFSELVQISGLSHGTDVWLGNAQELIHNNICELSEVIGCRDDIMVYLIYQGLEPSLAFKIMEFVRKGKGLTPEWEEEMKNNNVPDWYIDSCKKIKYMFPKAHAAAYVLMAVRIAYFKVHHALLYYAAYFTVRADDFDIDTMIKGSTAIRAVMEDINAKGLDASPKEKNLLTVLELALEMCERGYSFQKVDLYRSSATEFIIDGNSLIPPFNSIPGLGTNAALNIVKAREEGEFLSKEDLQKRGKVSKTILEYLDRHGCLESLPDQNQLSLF
Pol I, sequence (O34996 whole entry): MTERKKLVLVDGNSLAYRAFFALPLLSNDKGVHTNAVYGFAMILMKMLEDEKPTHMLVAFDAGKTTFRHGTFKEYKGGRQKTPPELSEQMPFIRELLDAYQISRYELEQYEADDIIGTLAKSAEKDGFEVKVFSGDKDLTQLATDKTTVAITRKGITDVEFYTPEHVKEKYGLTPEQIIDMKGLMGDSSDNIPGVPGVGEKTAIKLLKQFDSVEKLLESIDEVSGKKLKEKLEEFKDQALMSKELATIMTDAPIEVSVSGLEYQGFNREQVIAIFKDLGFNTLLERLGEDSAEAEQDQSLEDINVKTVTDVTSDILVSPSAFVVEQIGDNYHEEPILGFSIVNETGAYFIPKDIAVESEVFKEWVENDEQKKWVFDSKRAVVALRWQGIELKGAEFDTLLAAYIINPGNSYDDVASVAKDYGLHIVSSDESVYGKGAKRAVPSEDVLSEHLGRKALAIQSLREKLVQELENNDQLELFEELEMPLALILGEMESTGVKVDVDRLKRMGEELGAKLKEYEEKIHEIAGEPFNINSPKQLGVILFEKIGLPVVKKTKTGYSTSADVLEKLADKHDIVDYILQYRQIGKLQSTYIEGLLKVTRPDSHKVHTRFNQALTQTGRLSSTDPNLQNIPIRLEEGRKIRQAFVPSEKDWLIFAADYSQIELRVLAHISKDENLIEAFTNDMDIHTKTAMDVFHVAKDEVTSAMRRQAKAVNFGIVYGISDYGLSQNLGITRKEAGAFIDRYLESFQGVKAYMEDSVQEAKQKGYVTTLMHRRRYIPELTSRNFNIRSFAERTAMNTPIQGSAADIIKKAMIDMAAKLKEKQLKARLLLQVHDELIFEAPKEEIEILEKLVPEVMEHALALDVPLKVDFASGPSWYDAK

Molecule	Observed characteristics: inhibition of polymerase activity (Peak1 (new polymerase))	Observed characteristics: inhibition of polymerase activity (Peak3 (Pol I))	Observed characteristics: inhibition of polymerase activity (Peak2 (Pol II))	Observed characteristics: inhibition of polymerase activity (Peak4 (Pol III-L))	Expected characteristics: inhibition of polymerase activity (Pol I)	Expected characteristics: inhibition of polymerase activity (Pol II)	Expected characteristics: inhibition of polymerase activity (Pol III-L)	further results
CCN1C(=O)C=CC1=O [NEM]	inhibited (Inhibited is defined as less than 40% remaining activity)	not inhibited (Not inhibited is defined as greater than 75% remaining activity)	not inhibited (Not inhibited is defined as greater than 75% remaining activity)	inhibited (Inhibited is defined as less than 40% remaining activity)	not inhibited (Not inhibited is defined as greater than 75% remaining activity)	not inhibited (Not inhibited is defined as greater than 75% remaining activity)	inhibited (Inhibited is defined as less than 40% remaining activity)	
O=C(O)c1cc[c]([Hg][Cl])cc1 [pCMB]	inhibited (Inhibited is defined as less than 40% remaining activity)	not inhibited (Not inhibited is defined as greater than 75% remaining activity)	inhibited (Inhibited is defined as less than 40% remaining activity)	inhibited (Inhibited is defined as less than 40% remaining activity)	not inhibited* (Not inhibited is defined as greater than 75% remaining activity)	inhibited** (Inhibited is defined as less than 40% remaining activity)	inhibited (Inhibited is defined as less than 40% remaining activity)	
Escherichia coli clamp loader complex (gamma complex: gamma, delta, delta prime, chi, psi) (from UniProt P06710 2-431; P28630 1-343; P28631 1-334; P28905 1-147; P28632 1-137)								Total DNA synthesis on circular singly primed M13mp18 ssDNA, lane 3 (Pol III-L, S. aureus beta and E. coli clamp loader complex; lane 1 Pol III-L alone 0.6 pmol) [1]: 0.99 pmol
B1								binding result [2]: binds
Streptococcus pyogenes τ subunit (dnaX gene product) (other, also called tau; DnaX-protein) MYQALYRKYRSQTFDEMVGQSVISTTLKQAVESGKISHAYLFSGPRGTGKTSAAKIFAKAMNCPNQVDGEPCNQCDICRDITNGSLEDVIEIDAASNNGVDEIRDIRDKSTYAPSRATYKVYIIDEVHMLSTGAFNALLKTLEEPTENVFILATTELHKIPATILSRVQRFEFKAIKQKAIREHLAWVLDKEGIAYEVDALNLIARRAEGGMRDALSILDQALSLSPDNQVAIAIAEEITGSISILALGDYVRYVSQEQATQALAALETIYDSGKSMSRFATDLLTYLRDLLVVKAGGDNQRQSAVFDTNLSLSIDRIFQMITVVTSHLPEIKKGTHPRIYAEMMTIQLAQKEQILSQVNLSGELISEIETLKNELAQLKQQLSQLQSRPDSLARSDKTKPKTTSYRVDRVTILKIMEETVRNSQQSRQYLDALKNAWNEILDNISAQDRALLMGSEPVLANSENAILAFEAAFNAEQVMSRNNLNDMFGNIMSKAAGFSPNILAVPRTDFQHIRKEFAQQMKSQKDSVQEEQEVALDIPEGFDFLLDKINTIDD								binding result [3]: no binding (tested: δ (200 µg) in 100 µl); binding result [4]: no binding (tested: δ′ (200 µg) in 100 µl)
